Read-outs that look alike come from different tables or passages of the source.

The target in one series is MRP2 (Homo sapiens, UniProt Q92887). Description: Transporter inhibition assay, MRP2.
The next series has as its target P-gp (Homo sapiens, UniProt P08183). Put plainly: Transporter inhibition assay, P-gp. Format: biochemical.
A further series deals with T1, OCT2 (Homo sapiens, UniProt O15244).
T1 sequence (O15244 1-555): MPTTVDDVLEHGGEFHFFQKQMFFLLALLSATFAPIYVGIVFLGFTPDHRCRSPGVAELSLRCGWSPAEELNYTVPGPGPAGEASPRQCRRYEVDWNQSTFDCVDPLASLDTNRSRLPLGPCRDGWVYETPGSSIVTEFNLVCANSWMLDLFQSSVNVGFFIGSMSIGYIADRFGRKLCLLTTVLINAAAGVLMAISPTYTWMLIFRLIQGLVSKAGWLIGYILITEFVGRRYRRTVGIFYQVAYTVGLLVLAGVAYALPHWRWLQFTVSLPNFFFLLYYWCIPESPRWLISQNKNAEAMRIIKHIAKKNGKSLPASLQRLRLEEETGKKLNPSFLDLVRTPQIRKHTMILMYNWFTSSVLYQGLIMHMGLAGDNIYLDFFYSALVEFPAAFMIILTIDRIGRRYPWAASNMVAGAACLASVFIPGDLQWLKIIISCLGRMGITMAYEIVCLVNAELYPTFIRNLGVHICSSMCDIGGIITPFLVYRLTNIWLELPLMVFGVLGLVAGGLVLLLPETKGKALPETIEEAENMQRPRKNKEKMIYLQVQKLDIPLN
Put plainly: Transporter inhibition assay, OCT2.

The next series deals with T2, BCRP (Homo sapiens, UniProt Q9UNQ0).
T2 sequence (Q9UNQ0 1-655): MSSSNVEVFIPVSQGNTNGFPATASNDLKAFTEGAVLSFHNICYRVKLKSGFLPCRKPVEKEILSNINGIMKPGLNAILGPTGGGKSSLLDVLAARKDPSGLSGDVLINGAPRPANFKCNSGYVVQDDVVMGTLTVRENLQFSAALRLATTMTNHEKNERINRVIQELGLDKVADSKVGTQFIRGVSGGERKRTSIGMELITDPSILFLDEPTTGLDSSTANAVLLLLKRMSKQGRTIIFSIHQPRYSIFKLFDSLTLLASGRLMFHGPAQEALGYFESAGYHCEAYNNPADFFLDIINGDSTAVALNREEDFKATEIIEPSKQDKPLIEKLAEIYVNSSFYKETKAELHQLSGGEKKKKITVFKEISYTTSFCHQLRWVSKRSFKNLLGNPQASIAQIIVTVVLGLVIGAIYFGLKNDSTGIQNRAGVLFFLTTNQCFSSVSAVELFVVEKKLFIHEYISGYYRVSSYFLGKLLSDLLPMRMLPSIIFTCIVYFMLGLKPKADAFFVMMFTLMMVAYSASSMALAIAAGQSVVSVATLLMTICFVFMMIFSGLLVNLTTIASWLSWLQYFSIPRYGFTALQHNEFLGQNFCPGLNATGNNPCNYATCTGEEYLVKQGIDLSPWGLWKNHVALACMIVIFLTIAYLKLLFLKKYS
Put plainly: Vesicular transport inhibition assay, BCRP.

A further series addresses T3, OATP1B3 (Homo sapiens, UniProt Q9NPD5).
T3 sequence (Q9NPD5 1-702): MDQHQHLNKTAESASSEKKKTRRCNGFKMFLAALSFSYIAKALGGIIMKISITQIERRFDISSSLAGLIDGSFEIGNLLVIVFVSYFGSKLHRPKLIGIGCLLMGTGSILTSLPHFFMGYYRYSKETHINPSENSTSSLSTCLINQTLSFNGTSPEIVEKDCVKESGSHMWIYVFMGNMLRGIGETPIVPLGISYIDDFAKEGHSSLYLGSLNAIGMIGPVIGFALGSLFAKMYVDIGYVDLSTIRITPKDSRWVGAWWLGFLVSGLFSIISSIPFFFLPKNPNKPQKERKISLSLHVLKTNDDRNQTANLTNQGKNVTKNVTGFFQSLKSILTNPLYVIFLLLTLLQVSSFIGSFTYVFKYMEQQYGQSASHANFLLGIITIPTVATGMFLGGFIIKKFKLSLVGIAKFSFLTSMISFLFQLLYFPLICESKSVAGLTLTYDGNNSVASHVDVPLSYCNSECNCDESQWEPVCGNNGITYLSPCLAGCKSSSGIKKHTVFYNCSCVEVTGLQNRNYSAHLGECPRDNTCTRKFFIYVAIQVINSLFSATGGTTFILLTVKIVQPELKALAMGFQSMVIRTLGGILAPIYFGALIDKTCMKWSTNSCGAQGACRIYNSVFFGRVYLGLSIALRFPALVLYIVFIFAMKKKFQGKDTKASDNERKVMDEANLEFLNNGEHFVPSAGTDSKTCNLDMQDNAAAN
Description: Transporter inhibition assay, OATP1B3. The conditions noted are these: cell line (HEK293 or MDCKII) stably expressing OATP1B3. Format: cell-based.

Another series deals with T4, OATP1B1 (Homo sapiens, UniProt Q9Y6L6).
T4 sequence (Q9Y6L6 1-691): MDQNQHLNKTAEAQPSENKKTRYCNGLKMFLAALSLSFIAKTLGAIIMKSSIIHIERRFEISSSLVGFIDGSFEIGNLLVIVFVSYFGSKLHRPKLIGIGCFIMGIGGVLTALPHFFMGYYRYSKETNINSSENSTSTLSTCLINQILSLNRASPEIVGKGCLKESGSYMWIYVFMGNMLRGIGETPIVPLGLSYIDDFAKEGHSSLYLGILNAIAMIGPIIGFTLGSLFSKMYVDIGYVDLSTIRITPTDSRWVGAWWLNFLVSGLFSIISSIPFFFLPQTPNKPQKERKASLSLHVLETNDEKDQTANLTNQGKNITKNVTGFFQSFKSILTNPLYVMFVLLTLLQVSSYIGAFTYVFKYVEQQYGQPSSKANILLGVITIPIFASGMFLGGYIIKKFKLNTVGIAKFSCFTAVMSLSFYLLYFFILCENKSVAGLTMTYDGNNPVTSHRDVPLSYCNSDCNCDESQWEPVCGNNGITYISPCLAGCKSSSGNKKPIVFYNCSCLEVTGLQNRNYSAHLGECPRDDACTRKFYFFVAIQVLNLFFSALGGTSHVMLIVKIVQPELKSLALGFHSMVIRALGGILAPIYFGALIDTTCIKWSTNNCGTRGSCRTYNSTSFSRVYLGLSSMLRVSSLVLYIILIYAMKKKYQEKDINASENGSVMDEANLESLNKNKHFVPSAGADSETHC
Description: Transporter inhibition assay, OATP1B1. The conditions noted are these: for inhibition at 100 μM: cell line (HEK293 or MDCKII) stably expressing OATP1B1.

Sequence of MRP2 (Q92887 whole entry): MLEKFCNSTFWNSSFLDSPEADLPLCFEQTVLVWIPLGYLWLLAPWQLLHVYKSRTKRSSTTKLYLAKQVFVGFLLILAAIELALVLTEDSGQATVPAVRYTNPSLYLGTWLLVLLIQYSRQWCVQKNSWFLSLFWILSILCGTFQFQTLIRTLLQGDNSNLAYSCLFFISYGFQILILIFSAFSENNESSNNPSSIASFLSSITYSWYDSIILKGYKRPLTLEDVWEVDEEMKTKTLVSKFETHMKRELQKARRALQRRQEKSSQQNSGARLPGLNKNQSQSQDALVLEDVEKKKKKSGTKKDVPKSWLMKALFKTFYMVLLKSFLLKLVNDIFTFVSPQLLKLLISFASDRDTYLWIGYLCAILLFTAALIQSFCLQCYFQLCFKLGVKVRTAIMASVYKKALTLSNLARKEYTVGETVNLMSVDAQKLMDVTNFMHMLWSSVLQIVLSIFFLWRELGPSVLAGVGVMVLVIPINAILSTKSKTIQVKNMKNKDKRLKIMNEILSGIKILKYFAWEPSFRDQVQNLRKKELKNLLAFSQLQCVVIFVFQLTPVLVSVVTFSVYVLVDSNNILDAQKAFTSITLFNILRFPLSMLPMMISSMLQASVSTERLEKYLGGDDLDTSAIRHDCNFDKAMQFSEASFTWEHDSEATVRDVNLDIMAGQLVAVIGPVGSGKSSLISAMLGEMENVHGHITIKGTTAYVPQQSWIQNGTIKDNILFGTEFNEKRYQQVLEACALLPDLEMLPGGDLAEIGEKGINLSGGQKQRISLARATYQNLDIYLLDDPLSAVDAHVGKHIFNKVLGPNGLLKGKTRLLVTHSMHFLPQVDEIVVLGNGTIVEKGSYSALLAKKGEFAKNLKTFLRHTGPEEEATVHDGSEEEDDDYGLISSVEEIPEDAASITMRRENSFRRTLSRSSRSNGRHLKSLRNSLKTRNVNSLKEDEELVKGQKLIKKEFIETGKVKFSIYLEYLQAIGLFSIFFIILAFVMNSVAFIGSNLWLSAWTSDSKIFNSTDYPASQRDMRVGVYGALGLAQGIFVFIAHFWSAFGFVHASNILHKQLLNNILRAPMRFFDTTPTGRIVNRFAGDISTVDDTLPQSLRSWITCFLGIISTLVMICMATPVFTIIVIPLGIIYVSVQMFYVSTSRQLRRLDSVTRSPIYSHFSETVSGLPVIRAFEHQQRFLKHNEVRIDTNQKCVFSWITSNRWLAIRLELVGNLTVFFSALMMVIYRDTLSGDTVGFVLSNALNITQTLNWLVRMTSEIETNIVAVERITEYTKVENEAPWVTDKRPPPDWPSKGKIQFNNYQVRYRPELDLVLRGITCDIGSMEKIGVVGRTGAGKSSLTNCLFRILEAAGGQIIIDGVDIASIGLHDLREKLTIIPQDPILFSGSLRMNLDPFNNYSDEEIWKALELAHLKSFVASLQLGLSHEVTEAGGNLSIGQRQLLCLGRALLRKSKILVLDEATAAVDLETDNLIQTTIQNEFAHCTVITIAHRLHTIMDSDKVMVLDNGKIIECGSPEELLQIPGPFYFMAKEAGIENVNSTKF
Sequence of P-gp (P08183 whole entry): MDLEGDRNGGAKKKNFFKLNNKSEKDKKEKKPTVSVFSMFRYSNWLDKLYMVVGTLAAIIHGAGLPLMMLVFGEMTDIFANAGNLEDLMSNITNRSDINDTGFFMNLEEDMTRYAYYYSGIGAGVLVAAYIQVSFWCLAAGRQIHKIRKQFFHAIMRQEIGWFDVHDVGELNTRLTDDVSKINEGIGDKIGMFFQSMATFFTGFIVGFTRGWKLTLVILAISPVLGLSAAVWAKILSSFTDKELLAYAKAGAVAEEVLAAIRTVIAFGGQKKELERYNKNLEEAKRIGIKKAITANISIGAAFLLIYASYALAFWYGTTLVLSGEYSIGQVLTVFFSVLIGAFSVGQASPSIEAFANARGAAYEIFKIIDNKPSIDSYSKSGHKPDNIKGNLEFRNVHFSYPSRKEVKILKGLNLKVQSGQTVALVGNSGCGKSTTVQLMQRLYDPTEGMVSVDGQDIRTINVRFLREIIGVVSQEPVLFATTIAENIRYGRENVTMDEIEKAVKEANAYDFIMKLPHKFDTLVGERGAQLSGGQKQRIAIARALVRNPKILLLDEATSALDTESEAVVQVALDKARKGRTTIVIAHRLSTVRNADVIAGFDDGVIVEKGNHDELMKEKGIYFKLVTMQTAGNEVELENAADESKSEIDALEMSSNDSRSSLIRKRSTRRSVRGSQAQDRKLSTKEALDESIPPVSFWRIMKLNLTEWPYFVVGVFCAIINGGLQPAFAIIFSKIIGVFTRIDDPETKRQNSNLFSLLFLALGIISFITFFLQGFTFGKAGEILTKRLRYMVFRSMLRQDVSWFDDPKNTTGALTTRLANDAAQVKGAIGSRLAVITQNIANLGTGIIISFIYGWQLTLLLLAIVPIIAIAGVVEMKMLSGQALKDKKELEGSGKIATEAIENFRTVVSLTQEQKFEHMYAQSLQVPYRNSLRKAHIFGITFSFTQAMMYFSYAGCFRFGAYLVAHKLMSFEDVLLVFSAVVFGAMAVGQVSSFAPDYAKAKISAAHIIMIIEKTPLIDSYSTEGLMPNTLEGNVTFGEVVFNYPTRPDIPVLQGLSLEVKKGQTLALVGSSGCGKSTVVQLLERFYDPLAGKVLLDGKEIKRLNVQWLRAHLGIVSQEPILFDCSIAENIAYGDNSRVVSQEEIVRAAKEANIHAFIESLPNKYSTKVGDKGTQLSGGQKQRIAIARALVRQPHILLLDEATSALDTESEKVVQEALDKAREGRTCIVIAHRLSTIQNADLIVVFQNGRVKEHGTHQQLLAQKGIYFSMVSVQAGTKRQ

With `CN1CCc2cc3c(cc2C1O)OCO3` (stereo not shown) [Hydrastinine, hydrastinine chloride monohydrate], the inhibition at 100 μM against MRP2, at P-gp, against BCRP, against OATP1B3 and against OATP1B1 was less than 20% each time. This molecule showed an IC50 at OCT2 of 95 µM.
With `COc1ccc2c(c1OC)C(=O)O[C@@H]2[C@H]1c2cc3c(cc2CCN1C)OCO3` [(−)-β-Hydrastine, (1R,9S)-(−)-β-Hydrastine], the “inhibition at the highest concentration tested” value on MRP2 (MRP2, alkaloids screened at 10 and 100 μM) is “-- (inhibition not observed)”. Also, the IC50 on OCT2 (OCT2, isolated alkaloids, mean [95% CI], three technical replicates) came out at 90 µM; on BCRP (BCRP, isolated alkaloids, mean [95% CI], three technical replicates), 86.2 µM; against OATP1B1 (OATP1B1, isolated alkaloids, mean [95% CI], three technical replicates), 120 µM.
Consider `COc1ccc2cc3[n+](cc2c1OC)CCc1cc2c(cc1-3)OCO2` [Berberine, berberine chloride], for which the inhibition at 100 μM at MRP2, at P-gp, against OATP1B3 and at OATP1B1 was less than 20% in each case. The results for the IC50 against OCT2 and on BCRP were 45 µM and 180 µM, respectively.

The term inhibition denotes the drop in the measured response relative to a control, in per cent. High values mean a response far below the control, low ones a response near the control. Usually IC50 stands for the midpoint of a concentration-inhibition curve. Low readings indicate greater potency in that assay, high ones weaker potency in that assay.

The record behind these values is publication PMC8058163 (Clinical pharmacology and therapeutics, 2020).
